The values that follow are results of earlier work, collected in patent US6800456B2, “Modified forms of hepatitis C NS3 protease for facilitating inhibitor screening and structural studies of protease:inhibitor complexes” (Bristol-Myers Squibb Company, priority 1999, dated 2004).

In general, IC50 refers to the concentration needed to halve the response being measured.

For the series, the target named is HCV protease (Hepatitis C virus genotype 1a, UniProt P26664). The note with it: Ingallinella et al., Biochemistry 37, 8906-8914 (1998).
Sequence of HCV protease (P26664 1027-1206 limits assumed, other chains not shown): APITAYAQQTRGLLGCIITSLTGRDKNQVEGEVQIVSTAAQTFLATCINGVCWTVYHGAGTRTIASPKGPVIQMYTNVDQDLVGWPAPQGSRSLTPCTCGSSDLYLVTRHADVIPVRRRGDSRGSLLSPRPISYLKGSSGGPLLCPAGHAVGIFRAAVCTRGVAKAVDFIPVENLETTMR

Square brackets hold non-standard residues; d marks the D form. Cha = N[C@@H](CC1CCCCC1)C(=O)O

Turning to Ac-D[dE]LI[Cha]C-OH, the IC50 was 15 nM.
